Results as given in ChEMBL document CHEMBL1649206, “Emerging Klebsiella pneumoniae isolates coproducing KPC-2 and VIM-1 carbapenemases” (2009).
Converted amounts (≈) assume the structure as drawn.

Columns and labels:
Klebsiella pneumoniae [1] = experiment: Antimicrobial activity against Klebsiella pneumoniae isolate H-1406 expressing VIM-1 and KPC-2 genes by microdilution method; format: functional
Klebsiella pneumoniae [2] = experiment: Antimicrobial activity against Klebsiella pneumoniae isolate A-1797 expressing VIM-1 and KPC-2 genes by microdilution method; format: functional
Klebsiella pneumoniae [3] = experiment: Antimicrobial activity against Klebsiella pneumoniae isolate T-1780 expressing VIM-1 and KPC-2 genes by microdilution method; format: functional
Klebsiella pneumoniae [4] = experiment: Antimicrobial activity against Klebsiella pneumoniae isolate A-1760 expressing VIM-1 and KPC-2 genes by microdilution method; format: functional
Klebsiella pneumoniae [5] = experiment: Antimicrobial activity against Klebsiella pneumoniae isolate T-1504 expressing VIM-1 and KPC-2 genes by microdilution method; format: functional
Klebsiella pneumoniae [6] = experiment: Antimicrobial activity against Klebsiella pneumoniae isolate H-1406 expressing VIM-1 and KPC-2 genes by microdilution method in presence of beta-lactamase inhibitor Tazobactam; format: functional
Klebsiella pneumoniae [7] = experiment: Antimicrobial activity against Klebsiella pneumoniae isolate A-1797 expressing VIM-1 and KPC-2 genes by microdilution method in presence of beta-lactamase inhibitor Tazobactam; format: functional
Klebsiella pneumoniae [8] = experiment: Antimicrobial activity against Klebsiella pneumoniae isolate T-1780 expressing VIM-1 and KPC-2 genes by microdilution method in presence of beta-lactamase inhibitor Tazobactam; format: functional
Klebsiella pneumoniae [9] = experiment: Antimicrobial activity against Klebsiella pneumoniae isolate A-1760 expressing VIM-1 and KPC-2 genes by microdilution method in presence of beta-lactamase inhibitor Tazobactam; format: functional
Klebsiella pneumoniae [10] = experiment: Antimicrobial activity against Klebsiella pneumoniae isolate T-1504 expressing VIM-1 and KPC-2 genes by microdilution method in presence of beta-lactamase inhibitor Tazobactam; format: functional
[11] = target: Metallo-beta-lactamase (Klebsiella pneumoniae) (UniProt Q5GN09); experiment: Activity of VIM-1 in Klebsiella pneumoniae isolate H-1406
[12] = target: Metallo-beta-lactamase (Klebsiella pneumoniae) (UniProt Q5GN09); experiment: Activity of VIM-1 in Klebsiella pneumoniae isolate A-1797
[13] = target: Metallo-beta-lactamase (Klebsiella pneumoniae) (UniProt Q5GN09); experiment: Activity of VIM-1 in Klebsiella pneumoniae isolate T-1780
[14] = target: Metallo-beta-lactamase (Klebsiella pneumoniae) (UniProt Q5GN09); experiment: Activity of VIM-1 in Klebsiella pneumoniae isolate A-1760
[15] = target: Carbapenem-hydrolyzing beta-lactamase KPC (Klebsiella pneumoniae) (UniProt Q9F663); experiment: Activity of KPC-2 in Klebsiella pneumoniae isolate T-1504
Carbapenem-hydrolyzing beta-lactamase KPC (Klebsiella pneumoniae), sequence (Q9F663 whole entry): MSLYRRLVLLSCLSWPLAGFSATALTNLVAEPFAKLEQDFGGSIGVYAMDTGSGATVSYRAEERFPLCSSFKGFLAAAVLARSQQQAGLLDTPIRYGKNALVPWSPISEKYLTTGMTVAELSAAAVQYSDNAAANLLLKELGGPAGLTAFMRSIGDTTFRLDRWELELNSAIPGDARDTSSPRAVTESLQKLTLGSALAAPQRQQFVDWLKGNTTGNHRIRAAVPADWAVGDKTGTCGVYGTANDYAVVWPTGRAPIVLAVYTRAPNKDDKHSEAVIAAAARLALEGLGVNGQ

[16] = target: Carbapenem-hydrolyzing beta-lactamase KPC (Klebsiella pneumoniae) (UniProt Q9F663); experiment: Activity of KPC-2 in Klebsiella pneumoniae isolate H-1406
[17] = target: Carbapenem-hydrolyzing beta-lactamase KPC (Klebsiella pneumoniae) (UniProt Q9F663); experiment: Activity of KPC-2 in Klebsiella pneumoniae isolate T-1780
[18] = target: Metallo-beta-lactamase (Klebsiella pneumoniae) (UniProt Q5GN09); experiment: Activity of VIM-1 in Klebsiella pneumoniae isolate H-1406 assessed as compound hydrolysis in presence of EDTA; set-up: scale not given: the % may be the effect or the level left
[19] = target: Metallo-beta-lactamase (Klebsiella pneumoniae) (UniProt Q5GN09); experiment: Activity of VIM-1 in Klebsiella pneumoniae isolate A-1797 assessed as compound hydrolysis in presence of EDTA; set-up: scale not given: the % may be the effect or the level left
[20] = target: Metallo-beta-lactamase (Klebsiella pneumoniae) (UniProt Q5GN09); experiment: Activity of VIM-1 in Klebsiella pneumoniae isolate T-1780 assessed as compound hydrolysis in presence of EDTA; set-up: scale not given: the % may be the effect or the level left
[21] = target: Metallo-beta-lactamase (Klebsiella pneumoniae) (UniProt Q5GN09); experiment: Activity of VIM-1 in Klebsiella pneumoniae isolate A-1760 assessed as compound hydrolysis in presence of EDTA; set-up: scale not given: the % may be the effect or the level left
[22] = target: Carbapenem-hydrolyzing beta-lactamase KPC (Klebsiella pneumoniae) (UniProt Q9F663); experiment: Activity of KPC-2 in Klebsiella pneumoniae isolate T-1504 assessed as compound hydrolysis in presence of EDTA; set-up: scale not given: the % may be the effect or the level left
[23] = target: Carbapenem-hydrolyzing beta-lactamase KPC (Klebsiella pneumoniae) (UniProt Q9F663); experiment: Activity of KPC-2 in Klebsiella pneumoniae isolate H-1406 assessed as compound hydrolysis in presence of EDTA; set-up: scale not given: the % may be the effect or the level left
[24] = target: Carbapenem-hydrolyzing beta-lactamase KPC (Klebsiella pneumoniae) (UniProt Q9F663); experiment: Activity of KPC-2 in Klebsiella pneumoniae isolate T-1780 assessed as compound hydrolysis in presence of EDTA; set-up: scale not given: the % may be the effect or the level left
Klebsiella pneumoniae [25] = experiment: Antimicrobial activity against Klebsiella pneumoniae isolate H-1406 expressing VIM-1 and KPC-2 genes by microdilution method in presence of beta-lactamase inhibitor clavulanic acid; format: functional
Klebsiella pneumoniae [26] = experiment: Antimicrobial activity against Klebsiella pneumoniae isolate A-1797 expressing VIM-1 and KPC-2 genes by microdilution method in presence of beta-lactamase inhibitor clavulanic acid; format: functional
Klebsiella pneumoniae [27] = experiment: Antimicrobial activity against Klebsiella pneumoniae isolate T-1780 expressing VIM-1 and KPC-2 genes by microdilution method in presence of beta-lactamase inhibitor clavulanic acid; format: functional
Klebsiella pneumoniae [28] = experiment: Antimicrobial activity against Klebsiella pneumoniae isolate A-1760 expressing VIM-1 and KPC-2 genes by microdilution method in presence of beta-lactamase inhibitor clavulanic acid; format: functional
Klebsiella pneumoniae [29] = experiment: Antimicrobial activity against Klebsiella pneumoniae isolate T-1504 expressing VIM-1 and KPC-2 genes by microdilution method in presence of beta-lactamase inhibitor clavulanic acid; format: functional

SMILES | MIC (Klebsiella pneumoniae [1]) [µg/mL] | MIC (Klebsiella pneumoniae [2]) [µg/mL] | MIC (Klebsiella pneumoniae [3]) [µg/mL] | MIC (Klebsiella pneumoniae [4]) [µg/mL] | MIC (Klebsiella pneumoniae [5]) [µg/mL] | also measured
C[C@@H](O)[C@H]1C(=O)N2C(C(=O)O)=C(S[C@@H]3CN[C@H](C(=O)Nc4cccc(C(=O)O)c4)C3)[C@H](C)[C@H]12 | 64 (≈ 135 µM) | 8 (≈ 16.8 µM) | > 128 | 64 (≈ 135 µM) | 32 (≈ 67.3 µM) | 
CCN1CCN(C(=O)N[C@@H](C(=O)N[C@@H]2C(=O)N3[C@@H]2SC(C)(C)[C@@H]3C(=O)O)c2ccccc2)C(=O)C1=O [PIPERACILLIN] |  |  | > 256 |  | 128 (≈ 247 µM) | MIC (Klebsiella pneumoniae [6]): > 256 µg/mL; MIC (Klebsiella pneumoniae [7]): > 256 µg/mL; MIC (Klebsiella pneumoniae [8]): > 256 µg/mL; MIC (Klebsiella pneumoniae [9]): > 256 µg/mL; MIC (Klebsiella pneumoniae [10]): 64 µg/mL
C[C@@H](O)[C@H]1C(=O)N2C(C(=O)O)=C(S[C@@H]3CN[C@H](C(=O)N(C)C)C3)[C@H](C)[C@H]12 [MEROPENEM] | 8 (≈ 20.9 µM) | 2 (≈ 5.22 µM) | 64 (≈ 167 µM) | 64 (≈ 167 µM) |  | Activity [11]: 55 U; Activity [12]: 42 U; Activity [13]: 76 U; Activity [14]: 80 U; Activity [15]: 31 U; Activity [16]: 55 U; Activity [17]: 76 U; Activity [18]: 57%; Activity [19]: 80%; Activity [20]: 64%; Activity [21]: 100%; Activity [22]: < 2%; Activity [23]: 57%; Activity [24]: 64%
CC1(C)S[C@@H]2[C@H](NC(=O)[C@H](C(=O)O)c3ccsc3)C(=O)N2[C@H]1C(=O)O [TICARCILLIN] | > 256 |  | > 256 |  | 256 (≈ 666 µM) | MIC (Klebsiella pneumoniae [25]): 256 µg/mL; MIC (Klebsiella pneumoniae [26]): > 256 µg/mL; MIC (Klebsiella pneumoniae [27]): > 256 µg/mL; MIC (Klebsiella pneumoniae [28]): > 256 µg/mL; MIC (Klebsiella pneumoniae [29]): 8 µg/mL
C[C@@H](O)[C@H]1C(=O)N2C(C(=O)O)=C(SCCNC=N)C[C@H]12 [IMIPENEM ANHYDROUS] | 32 (≈ 107 µM) | 2 (≈ 6.68 µM) | 32 (≈ 107 µM) | 32 (≈ 107 µM) | 2 (≈ 6.68 µM) | 
C[C@H]1[C@H](NC(=O)/C(=N\OC(C)(C)C(=O)O)c2csc(N)n2)C(=O)N1S(=O)(=O)O [AZTREONAM] | 64 (≈ 147 µM) | 64 (≈ 147 µM) | 64 (≈ 147 µM) | 0.12 (≈ 0.276 µM) | 32 (≈ 73.5 µM) | 
CO/N=C(\C(=O)N[C@@H]1C(=O)N2C(C(=O)O)=C(COC(C)=O)CS[C@H]12)c1csc(N)n1 [CEFOTAXIME] | 256 (≈ 562 µM) | > 256 | > 256 | > 256 | 8 (≈ 17.6 µM) | 
CC(C)(O/N=C(\C(=O)N[C@@H]1C(=O)N2C(C(=O)[O-])=C(C[n+]3ccccc3)CS[C@H]12)c1csc(N)n1)C(=O)O [CEFTAZIDIME] | > 256 | > 256 | > 256 | > 256 | 16 (≈ 29.3 µM) | 
CO/N=C(\C(=O)N[C@@H]1C(=O)N2C(C(=O)[O-])=C(C[N+]3(C)CCCC3)CS[C@H]12)c1csc(N)n1 | 128 (≈ 266 µM) | 16 (≈ 33.3 µM) | > 256 | 256 (≈ 533 µM) | 16 (≈ 33.3 µM) | 
